Our source for the Ki values is ChEMBL document CHEMBL3627601, “Poly(amidoamine) dendrimers show carbonic anhydrase inhibitory activity against α-, β-, γ- and η-class enzymes” (Bioorg Med Chem, 2015).

Experiment [1] is described as follows: Inhibition of Porphyromonas gingivalis beta-carbonic anhydrase preincubated for 15 mins by stopped-flow CO2 hydration assay.
Experiment [2] is described as follows: Inhibition of Cryptococcus neoformans beta-carbonic anhydrase preincubated for 15 mins by stopped-flow CO2 hydration assay.
Experiment [3] can be described thus: Inhibition of Candida glabrata beta-carbonic anhydrase preincubated for 15 mins by stopped-flow CO2 hydration assay. The arrangement: species or system Nakaseomyces glabratus.
A short description of experiment [4]: Inhibition of Porphyromonas gingivalis gamma-carbonic anhydrase preincubated for 15 mins by stopped-flow CO2 hydration assay.
The nature of experiment [5]: Inhibition of Trypanosoma cruzi alpha-carbonic anhydrase preincubated for 15 mins by stopped-flow CO2 hydration assay.
Experiment [6] in a line: Inhibition of Vibrio cholerae alpha-carbonic anhydrase preincubated for 15 mins by stopped-flow CO2 hydration assay.
Experiment [7] is described as follows: Inhibition of Plasmodium falciparum eta-carbonic anhydrase preincubated for 15 mins by stopped-flow CO2 hydration assay.
Experiment [8] can be described thus: Inhibition of Leishmania donovani chagasi beta-carbonic anhydrase preincubated for 15 mins by stopped-flow CO2 hydration assay.

Structures are written as SMILES.

One may read the Ki as a measure of affinity in units of concentration, obtained from inhibition or displacement. Regarding `CC(=O)Nc1nnc(S(N)(=O)=O)s1` [ACETAZOLAMIDE], the inhibitory constant (Ki) in experiment [1] stood at […]; in experiment [2] it was […]; in experiment [3] it was […].

In the case of `NS(=O)(=O)c1ccc(C(=O)NCCNC(=O)CCN(CCC(=O)NCCNC(=O)c2ccc(S(N)(=O)=O)cc2)CCN(CCC(=O)NCCNC(=O)c2ccc(S(N)(=O)=O)cc2)CCC(=O)NCCNC(=O)c2ccc(S(N)(=O)=O)cc2)cc1`, the Ki turned out to be 405 nM in experiment [4]; 17.7 nM in experiment [5]; 84.9 nM in experiment [1]; 24 nM in experiment [2]; 47.2 nM in experiment [6]; 69.7 nM in experiment [7]. The Ki was found to be 75.4 nM in experiment [8] and 427 nM in experiment [3].

As for `NS(=O)(=O)c1ccc(C(=O)NCCNC(=O)CCN(CCNC(=O)CCN(CCC(=O)NCCN(CCC(=O)NCCNC(=O)c2ccc(S(N)(=O)=O)cc2)CCC(=O)NCCNC(=O)c2ccc(S(N)(=O)=O)cc2)CCN(CCC(=O)NCCN(CCC(=O)NCCNC(=O)c2ccc(S(N)(=O)=O)cc2)CCC(=O)NCCNC(=O)c2ccc(S(N)(=O)=O)cc2)CCC(=O)NCCN(CCC(=O)NCCNC(=O)c2ccc(S(N)(=O)=O)cc2)CCC(=O)NCCNC(=O)c2ccc(S(N)(=O)=O)cc2)CCC(=O)NCCNC(=O)c2ccc(S(N)(=O)=O)cc2)cc1`, the Ki was 563 nM in experiment [4]; 95.4 nM in experiment [5]; 77 nM in experiment [1]; 83.6 nM in experiment [2]; 8.1 nM in experiment [6]; 58.6 nM in experiment [7]. The figures for the inhibition constant Ki in experiment [8] and in experiment [3] were 85.6 nM and 342 nM, respectively.
